The source made the active and inactive calls.
Experiments:
[1] = target: T1, Zinc finger protein mex-5 (Caenorhabditis elegans, UniProt Q9XUB2); experiment: MEX-5/TCR-2 RNA interaction inhibitors, dose response, biochemical, C. elegans, fluorescence polarization (AID 1960)
T1 sequence (Q9XUB2 whole entry): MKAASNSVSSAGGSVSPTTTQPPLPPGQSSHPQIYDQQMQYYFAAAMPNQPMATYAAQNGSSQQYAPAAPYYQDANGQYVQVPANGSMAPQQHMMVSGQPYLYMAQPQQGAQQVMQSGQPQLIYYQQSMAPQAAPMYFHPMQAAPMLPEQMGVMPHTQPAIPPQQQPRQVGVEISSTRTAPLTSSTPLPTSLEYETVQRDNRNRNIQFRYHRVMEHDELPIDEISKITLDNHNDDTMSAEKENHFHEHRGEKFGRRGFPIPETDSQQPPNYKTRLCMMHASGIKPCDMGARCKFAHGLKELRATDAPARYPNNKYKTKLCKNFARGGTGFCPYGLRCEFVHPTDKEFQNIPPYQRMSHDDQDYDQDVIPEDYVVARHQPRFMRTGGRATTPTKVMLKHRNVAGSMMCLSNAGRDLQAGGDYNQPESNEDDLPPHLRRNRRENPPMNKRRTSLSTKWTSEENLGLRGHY

[2] = target: T2, RNA-binding protein pos-1 (Caenorhabditis elegans, UniProt G5EF15); experiment: inhibitors of POS-1/mex-3 RNA binding, dose response, biochemical, fluorescence polarization (AID 1964);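 further: purified POS-1 fused to maltose binding protein made in E. coli; potency of compounds blocking POS-1 binding to fluorescent RNA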
T2 sequence (G5EF15 whole entry): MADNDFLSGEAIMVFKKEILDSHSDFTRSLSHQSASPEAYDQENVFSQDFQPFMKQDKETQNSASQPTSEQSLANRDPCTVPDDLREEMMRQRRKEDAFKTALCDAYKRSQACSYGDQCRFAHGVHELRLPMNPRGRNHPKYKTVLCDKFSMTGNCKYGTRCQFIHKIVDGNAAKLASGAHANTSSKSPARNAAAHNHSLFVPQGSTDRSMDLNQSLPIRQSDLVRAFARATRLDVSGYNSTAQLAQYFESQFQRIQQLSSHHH

[3] = target: T3, Short transient receptor potential channel 4 (Mus musculus, UniProt Q9QUQ5); experiment: mouse TRPC4 channel activators, dose response, cell-based, HEK293 TRPC4/mu-opioid, Fluo-4 calcium (AID 434937); format: functional
T3 sequence (Q9QUQ5 whole entry): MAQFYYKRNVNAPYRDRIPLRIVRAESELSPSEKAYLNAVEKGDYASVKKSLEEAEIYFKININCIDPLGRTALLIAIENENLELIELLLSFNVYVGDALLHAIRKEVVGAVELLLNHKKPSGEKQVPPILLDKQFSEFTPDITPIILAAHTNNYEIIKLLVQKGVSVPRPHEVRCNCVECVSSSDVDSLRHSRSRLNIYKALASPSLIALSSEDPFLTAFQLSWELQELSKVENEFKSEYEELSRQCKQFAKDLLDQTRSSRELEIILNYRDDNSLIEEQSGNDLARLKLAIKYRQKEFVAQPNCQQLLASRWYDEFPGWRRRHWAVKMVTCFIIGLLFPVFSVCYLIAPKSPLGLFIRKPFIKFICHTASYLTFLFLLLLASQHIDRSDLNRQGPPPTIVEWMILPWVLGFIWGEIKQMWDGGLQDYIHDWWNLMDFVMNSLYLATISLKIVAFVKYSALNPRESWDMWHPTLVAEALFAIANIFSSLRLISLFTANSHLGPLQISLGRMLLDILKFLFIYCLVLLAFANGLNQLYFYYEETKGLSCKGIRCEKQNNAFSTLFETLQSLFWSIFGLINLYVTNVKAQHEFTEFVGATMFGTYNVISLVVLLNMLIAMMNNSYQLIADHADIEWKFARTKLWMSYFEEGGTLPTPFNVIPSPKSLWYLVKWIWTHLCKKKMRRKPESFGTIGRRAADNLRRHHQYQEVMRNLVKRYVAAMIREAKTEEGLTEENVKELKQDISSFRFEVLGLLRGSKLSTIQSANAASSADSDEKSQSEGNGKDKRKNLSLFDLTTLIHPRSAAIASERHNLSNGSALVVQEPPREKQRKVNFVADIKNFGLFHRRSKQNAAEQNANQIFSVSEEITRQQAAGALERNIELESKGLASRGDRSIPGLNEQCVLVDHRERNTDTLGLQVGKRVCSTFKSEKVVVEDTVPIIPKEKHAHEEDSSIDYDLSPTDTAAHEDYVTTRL

[4] = target: Large T antigen (Simian virus 40, UniProt P03070); format: functional, Betapolyomavirus macacae;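 further: Confirmatory-stage PubChem screen for compounds that inhibit SV40 T antigen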
Sequence of Large T antigen (P03070 whole entry): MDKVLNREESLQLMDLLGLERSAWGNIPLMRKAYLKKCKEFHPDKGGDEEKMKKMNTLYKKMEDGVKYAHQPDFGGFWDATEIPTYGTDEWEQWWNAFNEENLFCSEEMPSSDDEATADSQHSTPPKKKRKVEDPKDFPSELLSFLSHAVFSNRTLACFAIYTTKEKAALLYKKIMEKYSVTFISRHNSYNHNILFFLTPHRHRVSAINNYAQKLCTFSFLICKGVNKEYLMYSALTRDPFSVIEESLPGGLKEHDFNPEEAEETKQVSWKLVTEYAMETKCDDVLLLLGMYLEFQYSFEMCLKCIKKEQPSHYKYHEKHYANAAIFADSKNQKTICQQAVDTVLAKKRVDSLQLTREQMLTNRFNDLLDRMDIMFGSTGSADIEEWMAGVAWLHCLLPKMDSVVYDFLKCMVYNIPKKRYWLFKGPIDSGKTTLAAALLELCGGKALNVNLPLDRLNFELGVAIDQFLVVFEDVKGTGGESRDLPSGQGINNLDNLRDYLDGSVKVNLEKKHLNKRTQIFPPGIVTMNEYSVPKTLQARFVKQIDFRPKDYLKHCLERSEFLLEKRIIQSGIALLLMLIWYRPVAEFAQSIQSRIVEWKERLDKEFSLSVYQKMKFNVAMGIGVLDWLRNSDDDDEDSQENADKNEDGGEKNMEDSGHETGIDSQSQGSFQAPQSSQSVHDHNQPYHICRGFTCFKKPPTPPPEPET

[5] = target: Induced myeloid leukemia cell differentiation protein Mcl-1 (Homo sapiens, UniProt Q07820); format: functional
Sequence of Induced myeloid leukemia cell differentiation protein Mcl-1 (Q07820 whole entry): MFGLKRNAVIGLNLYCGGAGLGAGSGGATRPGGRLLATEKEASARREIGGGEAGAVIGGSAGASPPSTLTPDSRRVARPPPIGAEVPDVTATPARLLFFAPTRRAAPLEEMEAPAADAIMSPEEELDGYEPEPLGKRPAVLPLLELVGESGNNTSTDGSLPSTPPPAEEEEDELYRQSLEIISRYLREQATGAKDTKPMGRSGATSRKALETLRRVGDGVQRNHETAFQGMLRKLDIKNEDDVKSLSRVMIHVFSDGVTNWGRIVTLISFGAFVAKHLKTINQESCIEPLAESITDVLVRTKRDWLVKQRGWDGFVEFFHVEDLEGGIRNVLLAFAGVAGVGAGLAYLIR

[6] = cytotoxicity toward NIH3T3 fibroblasts, dose response, counter-screen, cell-based, ATP luminescence, mouse fibroblasts (AID 2010); format: functional;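 further: cells exposed to compound for about 90 hours before reading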
[7] = inhibitors of intracellular T. cruzi replication, confirmation, NIH3T3 host cells, beta-gal luminescence (AID 2044); format: functional, cell-based;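 further: intracellular parasites grown in NIH/3T3 mouse fibroblasts as host cells; luminescent beta-galactosidase reporter signal from transgenic T. cruzi replicating inside host cells; inhibitors lower the luminescence signal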
[8] = target: T4, Polyadenylate-binding protein 1 (Homo sapiens, UniProt P11940); experiment: PABP1 MLLE–PAM2 binding inhibitor potency, dose response, biochemical, fluorescence polarization, FITC-PAM2 peptide (AID 602259); format: functional; conditions: read-out: IC50_Mean
T4 sequence (P11940 whole entry): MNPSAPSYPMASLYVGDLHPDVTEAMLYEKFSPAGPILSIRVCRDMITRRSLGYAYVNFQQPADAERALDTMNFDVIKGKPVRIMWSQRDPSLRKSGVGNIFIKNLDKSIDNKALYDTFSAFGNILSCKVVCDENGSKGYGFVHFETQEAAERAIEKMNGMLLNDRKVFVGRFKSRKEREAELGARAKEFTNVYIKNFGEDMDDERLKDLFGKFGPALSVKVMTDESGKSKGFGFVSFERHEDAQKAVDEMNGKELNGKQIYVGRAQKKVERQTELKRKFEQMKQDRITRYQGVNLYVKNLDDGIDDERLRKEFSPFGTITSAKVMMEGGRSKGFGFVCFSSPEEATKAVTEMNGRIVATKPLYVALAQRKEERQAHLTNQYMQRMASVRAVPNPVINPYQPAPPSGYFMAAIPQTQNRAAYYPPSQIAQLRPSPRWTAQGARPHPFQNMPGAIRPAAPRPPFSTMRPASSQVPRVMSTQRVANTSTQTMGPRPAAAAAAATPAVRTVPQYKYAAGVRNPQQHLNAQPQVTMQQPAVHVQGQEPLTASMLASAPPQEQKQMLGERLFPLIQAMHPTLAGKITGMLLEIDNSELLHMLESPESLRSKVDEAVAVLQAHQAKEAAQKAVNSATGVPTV

[9] = target: T4, Polyadenylate-binding protein 1; experiment: PABP1 MLLE–PAM2 interaction inhibitors, dose response, miRNA deadenylation inhibitor project, biochemical, fluorescence polarization, Cy5-PAM2 peptide, secondary (AID 602260); format: functional; conditions: read-out: IC50_Mean
[10] = target: T5, Corticotropin-releasing factor receptor 2/Corticotropin-releasing factor-binding protein (Homo sapiens, UniProt P24387+Q13324); experiment: activators of CRF receptor 2 with binding protein – uHTS hits, confirmation (AID 602473); format: functional; conditions: read-out: EC50_Mean
T5 sequence (Q13324 whole entry): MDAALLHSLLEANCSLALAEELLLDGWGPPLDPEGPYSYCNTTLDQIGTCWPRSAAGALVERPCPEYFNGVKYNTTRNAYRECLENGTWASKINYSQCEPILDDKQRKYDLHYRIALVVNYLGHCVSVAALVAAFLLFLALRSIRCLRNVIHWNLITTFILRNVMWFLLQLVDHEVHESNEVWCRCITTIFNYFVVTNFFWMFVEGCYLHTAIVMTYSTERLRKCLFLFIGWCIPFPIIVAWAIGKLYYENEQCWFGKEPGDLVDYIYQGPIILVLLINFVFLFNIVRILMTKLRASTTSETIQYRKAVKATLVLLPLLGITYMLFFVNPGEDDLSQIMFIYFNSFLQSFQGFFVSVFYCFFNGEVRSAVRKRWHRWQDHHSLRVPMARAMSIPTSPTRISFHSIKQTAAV
T5 sequence (P24387 whole entry): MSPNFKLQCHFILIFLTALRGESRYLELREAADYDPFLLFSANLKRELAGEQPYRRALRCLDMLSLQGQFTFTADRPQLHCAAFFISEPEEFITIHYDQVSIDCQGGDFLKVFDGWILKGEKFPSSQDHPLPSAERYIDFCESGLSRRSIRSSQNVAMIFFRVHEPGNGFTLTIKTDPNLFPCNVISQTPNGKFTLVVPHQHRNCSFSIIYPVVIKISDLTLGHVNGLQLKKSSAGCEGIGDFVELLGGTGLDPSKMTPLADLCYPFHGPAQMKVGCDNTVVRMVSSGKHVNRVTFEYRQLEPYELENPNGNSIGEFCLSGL

[11] = target: FAD-linked sulfhydryl oxidase ALR (Homo sapiens, UniProt P55789); experiment: inhibitors of human ALR sulfhydryl oxidase, dose response, biochemical, H2O2 detection, luminescence, cherry-pick (AID 493248)
Sequence of FAD-linked sulfhydryl oxidase ALR (P55789 whole entry): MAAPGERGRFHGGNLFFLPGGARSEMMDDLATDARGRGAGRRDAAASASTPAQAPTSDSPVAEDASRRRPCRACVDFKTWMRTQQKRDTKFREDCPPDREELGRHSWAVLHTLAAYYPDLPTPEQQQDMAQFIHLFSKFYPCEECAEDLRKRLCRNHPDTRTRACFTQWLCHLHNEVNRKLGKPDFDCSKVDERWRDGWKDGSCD

[12] = system: INS1; experiment: beta cell apoptosis inhibitors, cytokine rescue, dose response, luminescence, retest (AID 449756); format: functional, cell-based; conditions: Rattus norvegicus;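 further: cell death triggered by IL-1 beta plus TNF-alpha plus IFN-gamma mixture; protective hits raise ATP signal compared with cytokine alone wells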
[13] = intracellular Trypanosoma cruzi inhibitors in host cells – cell-based, plate reader, cherry-pick samples, set 3, dose response (AID 651818); format: functional;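 further: compounds incubated with infected cells for about four days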

Cn1ncc2c(NNC(=O)c3ccc(O)cc3)ncnc21
EC50 [1]: 6.35 µM (active)
EC50 [2]: 39.5 µM (active)

COc1ccccc1N=C(S)NNC(=O)c1cc(C)n(C)n1
EC50 [1]: 58.4 µM (active)
EC50 [2]: 50.3 µM (active)

Cc1cccc(Oc2nc(-c3ccccn3)nc3ccccc23)c1
EC50 [1]: 173 µM (active)
EC50 [2]: > 300 µM (not active)

CCCN(CCC)CCCNC(=O)C1CCN(S(=O)(=O)c2cccc3nsnc23)CC1
EC50 [3]: 0.133 µM (active)

COC(=O)CSc1nnc(CNc2ccc(OC)cc2)n1C
IC50 [4]: 45.8 µM (active)

COC(=O)C1CCN(Cc2cn(-c3ccccc3)nc2-c2ccc3c(c2)OCO3)CC1
EC50 [3]: 1.88 µM (active)

C=CCc1c(C)nc(SCCC)nc1O
IC50 [5]: 9.1 µM (not active)

Cc1ccc(C)c(OCCCCCn2ccnc2)c1
EC50 [6]: 4.76 µM (active)
EC50 [7]: 0.505 µM (active)
EC50 [3]: 3.35 µM (active)

Cc1ccc(NC(S)=Nc2ccccn2)cc1C
IC50 [8]: > 66 µM (inactive)
IC50 [9]: > 66 µM (inactive)

CCOC(=O)c1c(-c2ccc(C)cc2)csc1NC(=O)/C(C#N)=C/c1ccc(O)c(OC)c1
EC50 [10]: 2.87 µM (active)
IC50 [5]: > 54 µM (active)

O=C(CSc1ccsc1[N+](=O)[O-])N1CCN(c2ccc(Cl)cc2)CC1
IC50 [5]: 5.8 µM (active)

O=[N+]([O-])c1cc(-c2ccc([As](=O)(O)O)cc2)ccc1[As](=O)(O)O
EC50 [1]: 18 µM (active)
EC50 [2]: 22.8 µM (inconclusive)

Cc1cccc(N(C)C(=O)CCS(=O)(=O)c2cc3c(cc2Cl)NC(=O)CO3)c1
IC50 [8]: > 66 µM (inactive)
IC50 [9]: > 66 µM (inactive)

CC1CC(C)CN(CCCNS(=O)(=O)c2cc(Br)cc3c2N(C(=O)C2CC2)CC3)C1 (stereo unspecified)
EC50 [3]: 0.0267 µM (active)

COc1ccc(N2CCN(Cc3nc4ccccc4n3C)CC2)cc1
AC50 [11]: 8.25 µM (active)
EC50 [3]: 6.68 µM (active)

COc1ccc(-c2c(-c3ccc(O)cc3O)n[nH]c2C)cc1OC
IC50 [4]: 33.6 µM (active)

CC1(C)CC(=O)C2=C(C1)OC(N)=C(C#N)C2c1ccc2c(c1)OCO2 (stereo unspecified)
EC50 [1]: > 300 µM (not active)
EC50 [2]: > 300 µM (not active)

CC(C)c1ccc(O)c(NC(=S)NC(=O)CCc2ccccc2)c1
IC50 [8]: > 66 µM (inactive)
IC50 [9]: > 66 µM (inactive)

Cc1cc(-c2ccccc2)cc(C)[n+]1Cc1ccccc1.[O-][Cl+3]([O-])([O-])[O-]
AC50 [12]: 0.719 µM (active)
EC50 [3]: 1.88 µM (active)

COc1ccc(/C(C)=N\NC(=O)CSc2nnc(C)s2)cc1
IC50 [8]: > 66 µM (inactive)
IC50 [9]: > 66 µM (inactive)

Cc1noc(C)c1S(=O)(=O)Nc1cccc2c1O[C@H](CN(C)Cc1ccc(C(=O)Nc3ccccc3N)cc1)[C@H](C)CN([C@H](C)CO)C2=O
AC50 [13]: 3.53 µM (active)

C[C@H](CO)N1C[C@H](C)[C@@H](CN(C)Cc2ccc(-c3ccccc3)cc2)Oc2c(NC(=O)CCCCCC(=O)Nc3ccccc3N)cccc2C1=O
AC50 [13]: 1.6 µM (active)

C[C@H]1CN([C@@H](C)CO)C(=O)c2cccc(NS(=O)(=O)c3ccc(Cl)cc3)c2O[C@H]1CN(C)Cc1ccc(C(=O)Nc2ccccc2N)cc1
AC50 [13]: 2.28 µM (active)

C[C@H](CO)N1C[C@H](C)[C@H](CN(C)S(=O)(=O)c2cccs2)Oc2c(NC(=O)c3nc4ccccc4s3)cccc2C1=O
AC50 [13]: 1.67 µM (active)

C[C@@H]1CN([C@H](C)CO)C(=O)c2cccc(NC(=O)CCCCCC(=O)Nc3ccccc3N)c2O[C@H]1CN(C)CC1CCCCC1
AC50 [13]: 3.18 µM (active)

Cc1ccc(S(=O)(=O)Nc2ccc3c(c2)C(=O)N([C@@H](C)CO)C[C@@H](C)[C@@H](CN(C)Cc2ccc(Cl)c(Cl)c2)O3)cc1
AC50 [13]: 3.36 µM (active)

C[C@H]1CN([C@@H](C)CO)C(=O)Cc2cc(N(C)C)ccc2O[C@@H]1CN(C)Cc1ccc(C(F)(F)F)cc1
AC50 [13]: 0.991 µM (active)

COc1ccc2[nH]c3c(=O)n(Cc4ccc(C(=O)N5CCCC5)cc4)c(=S)[nH]c3c2c1
IC50 [5]: 3.5 µM (not active)

O=[N+]([O-])c1cccc(N/N=C/c2cc([N+](=O)[O-])ccc2O)c1
IC50 [5]: < 0.4 µM (active)

CCOc1cc(/C=N/NC(=O)CCn2nnc3ccccc32)ccc1O
IC50 [4]: 10.4 µM (active)

COc1ccc(OC)c(/C=N/NC(=O)CCc2ccc(O)c(O)c2)c1
IC50 [4]: 19.1 µM (active)

Oc1cccc2cnccc12
IC50 [4]: 17.1 µM (active)
